From US12433899B2, “Therapeutics and method for treating osteoarthritis” (Calosyn Pharma Inc., priority 2021, dated 2025)

Test system: medial meniscal tear-induced cartilage degeneration
Assay: Rat medial meniscal tear model, knee histopathology after intra-articular dosing
Type: in vivo, Male Lewis rats
Conditions: IA 3 μg (each) Q4D days 4, 8, 12, 16, 20, 24; vs Q4D vehicle controls
Description: This model is performed by transection of the medial collateral ligament just below its attachment to the meniscus so that when the joint space opens, the meniscus is reflected toward the femur. The meniscus is cut at its narrowest point (away from the ossicles) taking care not to damage the tibial surface and making sure that the resulting transection produces separate, freely movable anterior and posterior meniscus halves.
Experimental Design: Animals were anesthetized with Isoflurane and the right knee area was prepared for surgery. A skin incision was made over the medial aspect of the knee and the medial collateral ligament was exposed by blunt dissection, and then transected. The medial meniscus was cut through the full thickness to simulate a complete tear. Skin and subcutis were closed with 4-0 Vicryl suture. Dosing by the intra-articular (IA) route began four days after surgery and continued as indicated below until day 24. Treatment groups were as follows: […]
All three sections of each knee were analyzed microscopically. In scoring the three sections, the worst-case scenario for the two halves on each slide was determined for general cartilage degeneration, proteoglycan loss, collagen damage, and osteophyte formation. […] When zones are scored individually, scores are assigned based on % area of the zone affected. […]

## COc1ccc([C@@H]2Sc3ccccc3N(CCN(C)C)C(=O)[C@@H]2OC(C)=O)cc1 [Diltiazem, 5-[2-(dimethylamino)ethyl]-2-(4-methoxyphenyl)-4-oxo-2,3,4,5-tetrahydro-1,5-benzothiazepin-3-yl acetate]
  decrease in the total joint score: 6%
